Results published in ChEMBL document CHEMBL3351419, “Orally bioavailable 6-chloro-7-methoxy-4(1H)-quinolones efficacious against multiple stages of Plasmodium” (J Med Chem, 2014).

Columns and labels:
[1] = system: Plasmodium falciparum; assay: Antimalarial activity against multi-drug-resistant Plasmodium falciparum W2 infected in human type A+ erythrocytes assessed as growth inhibition after 72 hrs by SYBR Green I assay; format: functional, organism-based; settings: W2, 72 h
[2] = system: Plasmodium falciparum; assay: Antimalarial activity against multi-drug-resistant Plasmodium falciparum TM90-C2B infected in human type A+ erythrocytes assessed as growth inhibition after 72 hrs by SYBR Green I assay; format: functional, organism-based
[3] = Resistance index, ratio of EC50 for multi-drug-resistant Plasmodium falciparum TM90-C2B infected in human type A+ erythrocytes to EC50 for multi-drug-resistant Plasmodium falciparum W2 infected in human type A+ erythrocytes; format: functional
[4] = system: J774; assay: Cytotoxicity against mouse J774 cells after 72 hrs by CellTiter 96 assay; format: cell-based; settings: J774, 72 h
[5] = Cytotoxicity index, ratio of EC50 for mouse J774 cells to EC50 for multi-drug-resistant Plasmodium falciparum TM90-C2B infected in human type A+ erythrocytes; format: toxicity, cell-based; settings: read-out: Ratio EC50
[6] = octanol/water, pH 7.4

Compound	EC50 [1] [nM]	EC50 [2] [nM]	Ratio EC50 [3]	EC50 [4] [nM]	selectivity ratio [5]	logD [6]
COc1cc2[nH]c(C)c(-c3cc4ccccc4s3)c(=O)c2cc1Cl	71.8	24.8	0.35	> 28100	> 1130	
COc1cc2[nH]c(C)c(-c3cc(C(F)(F)F)cc(C(F)(F)F)c3)c(=O)c2cc1Cl	1680	449	0.27	> 22900	> 51.1	
COc1cc2[nH]c(C)c(-c3ccccc3CO)c(=O)c2cc1Cl	258	277	1.08	> 30300	> 109	
C(=C\c1ccccc1)/CN1CCN(C(c2ccccc2)c2ccccc2)CC1 [CINNARIZINE]						5.68
COc1cc2[nH]c(C)c(-c3ccc(C)cc3)c(=O)c2cc1Cl	24.5	7.33	0.3	> 31900	> 4350	
COc1cc2[nH]c(C)c(-c3ccc(OC)c(F)c3F)c(=O)c2cc1Cl	157	403	2.57	> 27300	> 67.8	
COc1cc2[nH]c(C)c(-c3c(F)cccc3F)c(=O)c2cc1Cl	35.7	8.64	0.24	> 29800	> 3450	
COc1cc2[nH]c(C)c(-c3c(C)noc3C)c(=O)c2cc1Cl	1060	629	0.59	> 31400	> 49.9	
CCc1ccccc1-c1c(C)[nH]c2cc(OC)c(Cl)cc2c1=O	61.7	160	2.59	16200	102	
COc1cc2[nH]c(C)c(-c3cc4ccccc4o3)c(=O)c2cc1Cl	133	138	1.04	> 29400	> 214	
COc1cc2[nH]c(C)c(-c3ccc4nonc4c3)c(=O)c2cc1Cl	1970	80.6	0.04	> 29300	> 363	
COc1cc2[nH]c(C)c(-c3cncnc3)c(=O)c2cc1Cl	2990	1360	0.45	> 33100	> 24.4	
COc1cc2[nH]c(C)c(-c3ccccn3)c(=O)c2cc1Cl	928	214	0.23	> 33300	> 156	
COc1cc2[nH]c(C)c(-c3ccc(S(=O)(=O)N(C)C)cc3)c(=O)c2cc1Cl	1890	152	0.08	> 24600	> 162	
COc1cc2[nH]c(C)c(-c3ccc(C(C)(C)C)cc3)c(=O)c2cc1Cl	66.8	116		> 28100		
COc1cc2[nH]c(C)c(-c3ccc(O)cc3)c(=O)c2cc1Cl	2860	467	0.16	> 31700	> 67.8	
COc1cc2[nH]c(C)c(-c3ccc(COc4ccccc4)cc3)c(=O)c2cc1Cl	1.3	0.638	0.49			
COc1cc2[nH]c(C)c(-c3ccc4c(c3)OCCO4)c(=O)c2cc1Cl	173	91.9	0.53	> 27900	> 304	

Compound	EC50 [1] [nM]	EC50 [2] [nM]	Ratio EC50 [3]	EC50 [4] [nM]	selectivity ratio [5]	logD [6]
COc1cc2[nH]c(C)c(-c3ccoc3)c(=O)c2cc1Cl	13.3	1.85	0.14	> 34500	> 18600	
COc1cc2[nH]c(C)c(-c3cccc4c3oc3ccccc34)c(=O)c2cc1Cl	49	33.6	0.68	> 25700	> 765	
COc1cc2[nH]c(C)c(-c3ccc(N(C)C)cc3)c(=O)c2cc1Cl	60.7	15.3	0.25		> 1900	
COc1cc2[nH]c(C)c(-c3cccc(CO)c3)c(=O)c2cc1Cl	5400	829	0.15	> 30300	> 36.6	
CC(C)(C)NCC(O)COc1cccc2c1CC(O)C(O)C2 (stereo not given) [NADOLOL]						0.68
COc1cc2[nH]c(C)c(-c3ccc(C(C)=O)cc3)c(=O)c2cc1Cl	777	48.4	0.06	> 29300	> 605	
COc1cc2[nH]c(C)c(-c3ccc(C(F)(F)F)cc3F)c(=O)c2cc1Cl	21.4	10.4	0.48	> 25900	> 2500	
COc1cc2[nH]c(C)c(-c3ccc(OCc4ccc(F)cc4)cc3)c(=O)c2cc1Cl	5.18	1.56		> 23600		
CCOc1cc(-c2c(C)[nH]c3cc(OC)c(Cl)cc3c2=O)ccc1F	194	25.8	0.13	> 27600	> 1070	
COc1cc2[nH]c(C)c(-c3ccc(C=O)cc3)c(=O)c2cc1Cl	5520	> 3810	0.7	> 30500		
COc1cc2[nH]c(C)c(-c3ccccc3OC(F)(F)F)c(=O)c2cc1Cl	443	1910	4.32	> 30200	> 15.8	
COc1cc2[nH]c(C)c(-c3ccc(OCc4ccccc4)cc3)c(=O)c2cc1Cl	10.6	1.28	0.12	> 24600	> 19300	
COc1cc2[nH]c(C)c(-c3ccc(C(=O)O)cc3)c(=O)c2cc1Cl	517	73.1	0.14	> 29100	> 398	
COc1cc2[nH]c(C)c(-c3ccc(C)cc3C)c(=O)c2cc1Cl	9.15	3.17	0.35	3740	1180	
COc1cc2[nH]c(C)c(-c3c(C)cc(C)cc3C)c(=O)c2cc1Cl	46	46.3	1.01	2990	64.6	
COc1cc2[nH]c(C)c(-c3ccc(C(C)C)cc3)c(=O)c2cc1Cl	6.65	2.67	0.4	> 29300	> 11000	
COC(=O)c1ccc(-c2c(C)[nH]c3cc(OC)c(Cl)cc3c2=O)cc1	22.5	26	1.16	> 27900	> 1080	
Cn1c(=O)c2[nH]cnc2n(C)c1=O.O [THEOPHYLLINE]						-5
